We go through nine compounds from patent USRE31731E, “Herbicidal 4-trifluoromethyl-4-nitrodiphenyl ethers” (priority 1978, dated 1984).

Holding throughout (format): in vivo
Data set [1] deals with Monocots. Description: Herbicidal activity, preemergence, monocot weeds (Table II). The following applies: pre-emergence, 336 h, about 2 weeks, read-out: % control (percent of plants killed); for pest or weed control at 2241.7 g/ha: 2 lb./A.; for pest or weed control at 4483.4 g/ha: 4 lb./A. A digest of the protocol: (§1)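 Value is mean percent kill, judged roughly 2 weeks post-treatment. Acetone/water spray at 50 gal/A, given either right after sowing in soil flats (preemergence) or once seedlings were 2 weeks old (postemergence); rates in lb/A.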

The subject of data set [2] is Dicots. Put plainly: Herbicidal activity, preemergence, dicot weeds (Table II). To be noted: pre-emergence, 336 h, about 2 weeks, read-out: % control (percent of plants killed); for pest or weed control at 2241.7 g/ha: 2 lb./A.; for pest or weed control at 4483.4 g/ha: 4 lb./A. Put shortly: (§2)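 Plants were scored roughly 2 weeks post-treatment for percent kill (average percent control). Treatment was an acetone–water spray in 50 gal/acre carrier at the listed pounds per acre, applied either immediately after sowing or to 2-week-old seedlings.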

Data set [3] has as its system Monocots. Description: Herbicidal activity, postemergence, monocot weeds (Table II). The following applies: post-emergence, 336 h, about 2 weeks, read-out: % control (percent of plants killed); for pest or weed control at 2241.7 g/ha: 2 lb./A.; for pest or weed control at 4483.4 g/ha: 4 lb./A. A digest of the protocol:
as §1

Data set [4] relates to Dicots. Description: Herbicidal activity, postemergence, dicot weeds (Table II). The following applies: post-emergence, 336 h, about 2 weeks, read-out: % control (percent of plants killed); for pest or weed control at 2241.7 g/ha: 2 lb./A.; for pest or weed control at 4483.4 g/ha: 4 lb./A. Put shortly:
as §2

The subject of another data set is corn. Put plainly: Crop tolerance, corn. To be noted: 50% or less kill of crop at rates giving more than 50% kill of weeds. The protocol:
(§3) The following test procedure is employed. Seeds of selected crops and weeds are planted in soil in flats. For preemergence tests, the flats are treated with the test compound immediately after the planting. For postemergence tests, the seeds are allowed to germinate, and after 2 weeks the flats are treated with the test compound. The compound to be evaluated is dissolved in acetone, diluted with water, and sprayed over the flats using a carrier volume equivalent to 50 gallons per acre at the rate of application (pounds per acre, lb/A.) specified in the tables. About 2 weeks after the application of the test compound, the state of growth of the plants is observed and the phytotoxic effect of the compound is evaluated. Table II gives the average percent control achieved by the test compounds in terms of the percent of the plants which are killed by the compounds.
(§4) Following the general test procedure of Example 73, diphenyl ethers are evaluated for significant tolerance (as shown by 50% or less kill of the test crop at levels of application which give more than 50% kill of many or all of the weeds of Example 73) towards some or all of the following common agronomic crops (not all compounds tested against all crops): alfalfa, snapbeans, corn, cotton, cucumbers, peanuts, rape, rice, safflower, soybeans, tomatoes, and wheat.

A further data set relates to peanuts. Description: Crop tolerance, peanuts. To be noted: 50% or less kill of crop at rates giving more than 50% kill of weeds. The protocol:
as §3, §4

Another data set has as its system rice. Description: Crop tolerance, rice. The following applies: 50% or less kill of crop at rates giving more than 50% kill of weeds. The protocol: as §3, §4
A further data set relates to soybeans. Put plainly: Crop tolerance, soybeans. The following applies: 50% or less kill of crop at rates giving more than 50% kill of weeds. On the procedure: as §3, §4
Another data set relates to wheat. Put plainly: Crop tolerance, wheat. The following applies: 50% or less kill of crop at rates giving more than 50% kill of weeds. The protocol:
as §3, §4

The mark [5] stands for this setting: postemergence or on transplanted rice.

On to `CC(=O)Oc1cc(Oc2ccc(C(F)(F)F)cc2Cl)ccc1[N+](=O)[O-]` [Example 18, 2-Chloro-α,α,α-trifluoro-p-tolyl-3-acetoxy-4-nitrophenyl ether], for which the pest or weed control at 2241.7 g/ha with Monocots [1] came to 99%; in the data set with Dicots [2], 100%; with Monocots [3], 28%; in the data set on Dicots [4], 98%. Also, the pest or weed control at 4483.4 g/ha turned out to be 67% in the data set on Monocots [1], 100% in the data set on Dicots [2], 28% in the data set on Monocots [3] and 86% in the data set with Dicots [4]. The Tolerance to corn entry with corn (postemergence) is “Tolerance”. Besides, the Tolerance to peanuts entry with peanuts (postemergence) was “Tolerance”. Also, in the data set on rice (setting [5]), the Tolerance to rice result was “Tolerance”. The Tolerance to soybeans entry with soybeans (preemergence) is on record as “Tolerance”. In addition, the Tolerance to wheat result with wheat (postemergence) and in the data set on wheat (preemergence) was “Tolerance” each time.

Take `CCNc1cc(Oc2ccc(C(F)(F)F)cc2Cl)ccc1[N+](=O)[O-]` [Example 19, 2-Chloro-α,α,α-trifluoro-p-tolyl-3-ethylamino-4-nitrophenyl ether]: the pest or weed control at 2241.7 g/ha amounted to 77% in the data set on Monocots [1], 91% in the data set with Dicots [2], 94% in the data set on Monocots [3] and 97% in the data set on Dicots [4]. Further, the pest or weed control at 4483.4 g/ha with Monocots [1] came to 91%; in the data set on Dicots [2], 96%; with Monocots [3], 84%; in the data set on Dicots [4], 98%. Also, the Tolerance to corn result with corn (postemergence) and in the data set on corn (preemergence) was “Tolerance” in each case. Besides, the Tolerance to peanuts entry in the data set on peanuts (preemergence) is on record as “Tolerance”. For the same compound, the Tolerance to rice result in the data set with rice (preemergence) is “Tolerance”. In addition, the Tolerance to soybeans entry with soybeans (preemergence) is on record as “Tolerance”. Further, in the data set on wheat (preemergence), the Tolerance to wheat result is reported as “Tolerance”.

Consider `CCN(CC)c1cc(Oc2ccc(C(F)(F)F)cc2Cl)ccc1[N+](=O)[O-]` [Example 21, 2-Chloro-α,α,α-trifluoro-p-tolyl-3-diethylamino-4-nitrophenyl ether], for which the pest or weed control at 2241.7 g/ha with Monocots [1] was determined as 79%; in the data set on Dicots [2], 90%; with Monocots [3], 90%; in the data set with Dicots [4] it was 94%. The pest or weed control at 4483.4 g/ha in the data set with Monocots [1] amounted to 91%; with Dicots [2], 99%; in the data set on Monocots [3] it was 74%; in the data set with Dicots [4] it was 96%. Also, the Tolerance to corn entry in the data set on corn (postemergence) and in the data set on corn (preemergence) was “Tolerance” throughout. Also, the Tolerance to peanuts entry in the data set with peanuts (preemergence) is “Tolerance”. In addition, the Tolerance to rice entry in the data set on rice (preemergence) is “Tolerance”. Also, the Tolerance to soybeans result in the data set on soybeans (preemergence) is reported as “Tolerance”. Also, in the data set with wheat (postemergence), the Tolerance to wheat result is given as “Tolerance”.

As for `CCC(=O)Nc1cc(Oc2ccc(C(F)(F)F)cc2Cl)ccc1[N+](=O)[O-]` [Example 34], the pest or weed control at 2241.7 g/ha is 83% in the data set with Monocots [1], 85% with Dicots [2], 47% in the data set with Monocots [3] and 90% in the data set with Dicots [4]. Also, the pest or weed control at 4483.4 g/ha was found to be 35% in the data set with Monocots [1], 52% in the data set on Dicots [2], 32% in the data set with Monocots [3] and 89% with Dicots [4]. The Tolerance to corn result in the data set on corn (postemergence) and in the data set on corn (preemergence) was “Tolerance” in each case. Besides, the Tolerance to peanuts entry in the data set with peanuts (postemergence) and with peanuts (preemergence) was “Tolerance” in each case. For the same compound, the Tolerance to rice result in the data set with rice (setting [5]) and with rice (preemergence) was “Tolerance” throughout. Besides, the Tolerance to soybeans result in the data set with soybeans (postemergence or layby) and with soybeans (preemergence) was “Tolerance” in each case. Further, the Tolerance to wheat entry in the data set on wheat (postemergence) and in the data set on wheat (preemergence) was “Tolerance” throughout.

Take `Cc1cc(Oc2ccc(C(F)(F)F)cc2Cl)ccc1[N+](=O)[O-]` [Example 36, 2-chloro-α,α,α-trifluoro-p-tolyl-4-nitro-m-tolyl ether]: the pest or weed control at 2241.7 g/ha with Monocots [1] was determined as 100%; in the data set on Dicots [2], 100%; in the data set with Monocots [3] it was 94%; in the data set on Dicots [4], 98%. Also, the pest or weed control at 4483.4 g/ha in the data set with Monocots [1] amounted to 93%; in the data set with Dicots [2], 100%; with Monocots [3] it was 87%; in the data set with Dicots [4], 100%. The Tolerance to corn entry in the data set on corn (postemergence) is reported as “Tolerance”. The Tolerance to peanuts entry with peanuts (postemergence) and with peanuts (preemergence) was “Tolerance” each time. The Tolerance to wheat entry with wheat (postemergence) is “Tolerance”.

For `CSCCOc1cc(Oc2ccc(C(F)(F)F)cc2Cl)ccc1[N+](=O)[O-]` [Example 40], the pest or weed control at 2241.7 g/ha with Monocots [1] amounted to 88%; in the data set with Dicots [2], 98%; in the data set on Monocots [3], 81%; in the data set with Dicots [4], 100%. The pest or weed control at 4483.4 g/ha in the data set on Monocots [1] came out at 86%; in the data set on Dicots [2], 92%; with Monocots [3], 64%; in the data set on Dicots [4], 100%. For the same compound, the Tolerance to corn entry in the data set on corn (postemergence) and in the data set on corn (preemergence) was “Tolerance” throughout. Besides, the Tolerance to peanuts entry in the data set with peanuts (postemergence) and in the data set with peanuts (preemergence) was “Tolerance” each time. Moreover, the Tolerance to rice entry in the data set on rice (setting [5]) and in the data set with rice (preemergence) was “Tolerance” each time. Besides, the Tolerance to soybeans result in the data set on soybeans (preemergence) is listed as “Tolerance”. Further, the Tolerance to wheat result in the data set with wheat (preemergence) was “Tolerance”.

For `O=C(O)c1cc(Oc2ccc(C(F)(F)F)cc2Cl)ccc1[N+](=O)[O-]` [Example 48, 2-Chloro-α,α,α-trifluoro-p-tolyl-3-carboxy-4-nitrophenyl ether], the pest or weed control at 2241.7 g/ha is 100% in the data set on Monocots [1], 100% in the data set with Dicots [2], 84% with Monocots [3] and 97% in the data set on Dicots [4]. Moreover, the pest or weed control at 4483.4 g/ha turned out to be 99% in the data set on Monocots [1], 97% in the data set on Dicots [2], 75% with Monocots [3] and 100% in the data set with Dicots [4]. Besides, the Tolerance to peanuts entry with peanuts (postemergence) and with peanuts (preemergence) was “Tolerance” throughout. Besides, in the data set on rice (setting [5]), the Tolerance to rice result is “Tolerance”. Moreover, in the data set with soybeans (preemergence), the Tolerance to soybeans result was “Tolerance”. In the data set on wheat (postemergence), the Tolerance to wheat entry is “Tolerance”.

As for `COC(=O)C(C)Oc1cc(Oc2ccc(C(F)(F)F)cc2Cl)ccc1[N+](=O)[O-]` (stereo not drawn) [Example 50], the pest or weed control at 2241.7 g/ha worked out at 98% with Monocots [1], 100% with Dicots [2], 100% in the data set on Monocots [3] and 100% in the data set on Dicots [4]. The pest or weed control at 4483.4 g/ha in the data set with Monocots [1] came out at 90%; in the data set on Dicots [2] it was 83%; with Monocots [3], 97%; in the data set with Dicots [4], 100%. The Tolerance to peanuts result in the data set with peanuts (preemergence) is on record as “Tolerance”. Besides, the Tolerance to soybeans entry in the data set on soybeans (preemergence) is “Tolerance”. Also, in the data set with wheat (preemergence), the Tolerance to wheat result is “Tolerance”.

Consider `CCOc1cc(Oc2c(Cl)cc(C(F)(F)F)cc2Cl)ccc1[N+](=O)[O-]` [Example 56, 2,6-Dichloro-α,α,α-trifluoro-p-tolyl-3-ethoxy-4-nitrophenyl ether], for which the pest or weed control at 2241.7 g/ha in the data set on Monocots [1] is 100%; in the data set on Dicots [2] it was 100%; in the data set with Monocots [3] it was 100%; in the data set with Dicots [4], 99%. Besides, the pest or weed control at 4483.4 g/ha in the data set on Monocots [1] is 91%; in the data set on Dicots [2] it was 83%; with Monocots [3], 99%; in the data set on Dicots [4], 100%. In addition, the Tolerance to corn result in the data set with corn (postemergence) was “Tolerance”. For the same compound, the Tolerance to peanuts entry in the data set on peanuts (preemergence) is reported as “Tolerance”. In addition, in the data set with wheat (preemergence), the Tolerance to wheat result is “Tolerance”.
